Data from publication PMC7369637, “Inhibition of Resistance-Refractory P. falciparum Kinase PKG Delivers Prophylactic, Blood Stage, and Transmission-Blocking Antiplasmodial Activity” (Cell Chemical Biology, 2020).
Like-named read-outs stand apart in the source and are kept apart here.

How the values were obtained:
[1] = test system: Pf NF54 male gametes; experiment: Dual gamete formation assay, male gamete exflagellation; type: cell-based; settings: Plasmodium falciparum
Protocol: Pf NF54 gametocytes were generated as reported elsewhere ([Delves et al., 2016]). Briefly, static cultures of unsynchronized asexual parasites were continuously maintained as above. Parasites were cultured at 1% ring-stage parasitemias and 4% (v/v) hematocrit prior to the induction of gametocytes. To prepare gametocytes, 75% of the media was replaced daily for 14 subsequent days without adding fresh RBCs. During this process the temperature was kept strictly constant, as the rate of exflagellation is highly temperature-dependent. Between days 1 and 4 after culture induction, the asexual parasitemias increased rapidly to a peak. By day 7, as the asexual population waned, early-stage gametocytes became observable. By day 8, gametocyte maturation had progressed, and by day 14 morphologically distinguishable, mature stage V male and female gametocytes were present. […] Control reactions contained DMSO or 20 μM methylene blue (as negative and positive controls, respectively). […] After imaging, the plate was incubated at 18°C for a further 24 h to allow female gametes to maximally express Pfs25, followed by fluorescence microscopy imaging using a 10× objective. Both time lapse images of exflagellation and fluorescence images of female gametes were automatically quantified using custom scripts in ICY BioImage Analysis ([Delves et al., 2016]).

[2] = test system: phosphoproteome of Dd2-B2 Pf schizonts; experiment: Phosphoproteomics of Dd2-B2 schizonts exposed to 1200 nM MMV030084 for 3 h; type: cell-based, Plasmodium falciparum; settings: 1,200 nM, vs untreated
Protocol: Red blood cells were lysed by 0.1% saponin in washing buffer (20 mM β-glycerophosphate, 1 tablet of cOmplete protease inhibitor cocktail (Roche), and 1 tablet of PhosSTOP phosphatase inhibitor (Roche) per 10 ml PBS). Parasites were subsequently washed three times in washing buffer. Parasite pellets were stored at -80°C until all samples from two independently repeated exposure experiments were collected. Proteins were extracted from schizont pellets by sonication and lysis in Tris-EDTA buffer (10 mM Tris-HCl, 5 mM EDTA, 20 mM ß-glycerolphosphate; pH 7.4, 1% NP-40, 2% CHAPS) followed by reduction of disulfide bonds and alkylation. Samples were digested with trypsin at a ratio of 1:15 (w/w) trypsin and proteins concentrated using S-trap columns (ProtiFi) for 1 h at 47°C. For tandem mass tag (TMT) labelling, digested samples were incubated with TMTsixplex reagents (Thermo Scientific). All labeled samples were pooled together, loaded onto an anion-exchange column, and fractionated on an AKTA purifier (GE Healthcare). The fractions were concentrated and phosphopeptides were enriched using titanium dioxide (TiO2) and immobilized metal affinity chromatography (IMAC). […] We also analyzed the peptide sequences for patterns that conformed to the previously established PfPKG consensus motif K/RR/KxpS/pT and the PfPKA consensus motif K/RxxpS/pT ([Francis et al., 2010]).

[3] = test system: mature (stage V) NF54 gametocytes; experiment: Gametocyte susceptibility, saponin lysis-based MitoTracker high-content imaging assay; type: cell-based; settings: Plasmodium falciparum, saponin lysis-based sexual stage assay, 72 h
Protocol: This was determined using two separate assays. The first involved MitoTracker staining and high-content imaging. Mature (stage V) gametocytes were generated from NF54 ABS cultures as described elsewhere ([Plouffe et al., 2016]). Briefly, asexual parasites were cultured at 5% hematocrit in O^+ human erythrocytes in serum-containing complete media (RPMI 1640 (Life Technologies), 0.05 mg/ml gentamicin (Life Technologies), 0.014 mg/ml hypoxanthine (Sigma), 38.4 mM HEPES (Sigma), 0.2% (w/v) sodium bicarbonate (Sigma), D-glucose 0.2% (w/v) (Sigma), 3.4 mM sodium hydroxide (Sigma), 4.3% (v/v) heat-inactivated human serum (O^+, Interstate Blood bank), and 0.2% (w/v) AlbuMAX® II (Life Technologies)). […] The second assay assessed gametocyte susceptibility using a luciferase-based assay with 3D7elo1-pfs16-CBG99 transgenic parasites ([Cevenini et al., 2014]). […] Cell viability was then evaluated by adding a non-lysing formulation of 0.5 mM D-Luciferin substrate and measuring luciferase activity for 0.5 s on a Varioskan™ Flash Multimode Reader (Thermo Scientific). The percent of viability was calculated as a function of drug concentration and IC50 values were derived by non-linear regression analysis and curve fitting (using GraphPad Prism 6.0).

Q: With CC(C)(CN)c1nc(-c2ccc(Cl)c(O)c2)c(-c2ccncc2)[nH]1 [MMV030084] as the compound, how does the IC50 ([1]; carry-over: gametogenesis induced in the presence of compound, read-out: IC50, male gamete exflagellation) read?
A: Its IC50 is 0.141 µM.

Q: And the IC50 ([1]; compound washed out before gamete formation, read-out: IC50, male gamete formation, wash-out)?
A: Its IC50 is over 10 µM.

Q: What about the “Number of proteins with increased phosphorylation levels” value [2] of the same compound?
A: The value was 15.

Q: And the “Number of proteins with phosphorylation status reduced by more than 35%” value [2]?
A: Its value is 16.

Q: And the IC50 [3]?
A: The IC50 was over 40 µM.
